# From BindingDB's records for doi:10.1021/jm0497242 (Leadscope, 2004)
# Biological target: T1, Tyrosine-protein phosphatase non-receptor type 1 (Homo sapiens, UniProt P18031)
# T1 sequence (P18031 whole entry): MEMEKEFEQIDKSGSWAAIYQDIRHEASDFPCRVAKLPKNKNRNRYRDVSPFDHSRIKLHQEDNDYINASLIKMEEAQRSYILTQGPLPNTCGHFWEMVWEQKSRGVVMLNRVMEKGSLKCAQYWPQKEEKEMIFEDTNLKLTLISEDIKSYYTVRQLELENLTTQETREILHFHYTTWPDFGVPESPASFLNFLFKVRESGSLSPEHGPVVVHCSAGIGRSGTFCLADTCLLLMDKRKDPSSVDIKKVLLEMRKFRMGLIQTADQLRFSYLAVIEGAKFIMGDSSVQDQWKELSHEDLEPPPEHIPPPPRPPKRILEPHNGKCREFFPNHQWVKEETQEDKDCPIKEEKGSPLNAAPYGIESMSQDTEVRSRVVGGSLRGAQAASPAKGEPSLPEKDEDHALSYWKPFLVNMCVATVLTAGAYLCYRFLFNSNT
# Test: Concentration required for 50% inhibition of tyrosine phosphatase 1B
row,IC50 [nM],Structure (SMILES)
1,58.8,O=C(O)[C@@H](Cc1ccccc1)Oc1ccc(-c2ccc(-c3c(Cc4ccccc4)sc4ccccc34)cc2)cc1Br
2,27.5,O=C(O)c1cc(S(=O)(=O)Oc2ccc(-c3ccc(-c4c(Cc5ccccc5)oc5ccccc45)cc3)cc2)ccc1O [5-[4''-(2-Benzyl-benzofuran-3-yl)-biphenyl-4-yloxysulfonyl]-2-hydroxy-benzoic acid]
3,83.1,O=C(O)CNc1cc(-c2ccc(-c3c(Cc4ccccc4)oc4ccccc34)cc2)ccc1OCCc1ccccc1 [[4'-(2-Benzyl-benzofuran-3-yl)-4-phenethyloxy-biphenyl-3-ylamino]-acetic acid]
